Assay results published in the NIST ThermoML archive (doi:10.1016/j.jct.2016.10.031).
“And” between values parts separate entries of the source, which are not always exact repeats. Identical values can stand only once.

Assay: molar heat capacity at constant pressure
Conditions: 101.33 kPa, Small (less than 1 g) adiabatic calorimetry

CC(C)(C)c1ccc(Oc2ccc([N+](=O)[O-])cc2)cc1 [1-(tert-butyl)-4-(4-nitrophenoxy)benzene]
Conditions	molar heat capacity at constant pressure
210.18 K, Glass	258.75 J/K/mol
210.65 K, Crystal	255.67 J/K/mol
211.38 K, Glass	260.08 J/K/mol
211.85 K, Crystal	257 J/K/mol
212.58 K, Glass	261.24 J/K/mol
213.05 K, Crystal	258.5 J/K/mol
213.78 K, Glass	262.57 J/K/mol
214.26 K, Crystal	259.91 J/K/mol
214.99 K, Glass	263.98 J/K/mol
215.46 K, Crystal	261.07 J/K/mol
216.19 K, Glass	265.4 J/K/mol
216.66 K, Crystal	262.4 J/K/mol
217.4 K, Glass	266.56 J/K/mol
217.87 K, Crystal	263.65 J/K/mol
218.61 K, Glass	267.89 J/K/mol
219.07 K, Crystal	265.56 J/K/mol
220 K, Crystal	266.48 J/K/mol
220.27 K, Crystal	266.4 J/K/mol
221.02 K, Glass	272.13 J/K/mol
221.47 K, Crystal	268.06 J/K/mol
222.24 K, Glass	272.71 J/K/mol
222.68 K, Crystal	269.47 J/K/mol
223.45 K, Glass	273.71 J/K/mol
223.88 K, Crystal	270.8 J/K/mol
224.67 K, Glass	275.46 J/K/mol
225.09 K, Crystal	272.13 J/K/mol
225.88 K, Glass	277.37 J/K/mol
226.29 K, Crystal	273.38 J/K/mol
227.1 K, Glass	279.45 J/K/mol
227.5 K, Crystal	274.88 J/K/mol
228.32 K, Glass	281.53 J/K/mol
228.7 K, Crystal	276.37 J/K/mol
229.54 K, Glass	283.61 J/K/mol
229.91 K, Crystal	277.7 J/K/mol
230 K, Crystal	277.79 J/K/mol
230.75 K, Glass	286.52 J/K/mol
231.12 K, Crystal	278.7 J/K/mol
231.96 K, Glass	291.09 J/K/mol
232.32 K, Crystal	280.03 J/K/mol
233.16 K, Glass	296.83 J/K/mol
233.53 K, Crystal	281.78 J/K/mol
234.33 K, Metastable liquid	313.12 J/K/mol
234.74 K, Crystal	283.36 J/K/mol
235.47 K, Metastable liquid	327.51 J/K/mol
235.95 K, Crystal	284.69 J/K/mol
236.57 K, Metastable liquid	370.08 J/K/mol
237.15 K, Crystal	286.77 J/K/mol
237.72 K, Metastable liquid	379.14 J/K/mol
238.37 K, Crystal	287.51 J/K/mol
238.92 K, Metastable liquid	380.05 J/K/mol
239.58 K, Crystal	289.09 J/K/mol
240 K, Crystal	289.26 J/K/mol
240.13 K, Metastable liquid	380.22 J/K/mol
240.79 K, Crystal	290.51 J/K/mol
241.35 K, Metastable liquid	381.3 J/K/mol
242 K, Crystal	291.5 J/K/mol
242.56 K, Metastable liquid	382.3 J/K/mol
243.21 K, Crystal	292.84 J/K/mol
243.77 K, Metastable liquid	383.46 J/K/mol
244.43 K, Crystal	294.58 J/K/mol
244.99 K, Metastable liquid	384.21 J/K/mol
245.64 K, Crystal	295.99 J/K/mol
246.85 K, Crystal	297.24 J/K/mol
248.06 K, Crystal	298.57 J/K/mol
249.28 K, Crystal	300.07 J/K/mol
250 K, Crystal	300.9 J/K/mol
250.5 K, Crystal	301.73 J/K/mol
251.71 K, Crystal	302.73 J/K/mol
252.92 K, Crystal	304.39 J/K/mol
254.14 K, Crystal	305.89 J/K/mol
255.35 K, Crystal	307.72 J/K/mol
256.57 K, Crystal	309.05 J/K/mol
257.78 K, Crystal	310.55 J/K/mol
259 K, Crystal	311.96 J/K/mol
260 K, Crystal	312.62 J/K/mol
260.22 K, Crystal	313.46 J/K/mol
261.44 K, Crystal	315.12 J/K/mol
262.65 K, Crystal	316.28 J/K/mol
263.87 K, Crystal	317.61 J/K/mol
265.09 K, Crystal	319.11 J/K/mol
266.31 K, Crystal	320.52 J/K/mol
267.53 K, Crystal	322.93 J/K/mol
268.76 K, Crystal	323.52 J/K/mol
269.98 K, Crystal	324.6 J/K/mol
270 K, Crystal	324.6 J/K/mol
271.2 K, Crystal	326.68 J/K/mol
272.42 K, Crystal	327.92 J/K/mol
273.64 K, Crystal	329.92 J/K/mol
274.86 K, Crystal	331.08 J/K/mol
276.09 K, Crystal	332.58 J/K/mol
277.31 K, Crystal	333.99 J/K/mol
278.53 K, Crystal	335.41 J/K/mol
279.76 K, Crystal	336.82 J/K/mol
280 K, Crystal	336.82 J/K/mol
280.98 K, Crystal	337.98 J/K/mol
282.21 K, Crystal	338.98 J/K/mol
283.43 K, Crystal	341.06 J/K/mol
284.66 K, Crystal	342.56 J/K/mol
285.89 K, Crystal	344.14 J/K/mol
287.11 K, Crystal	345.22 J/K/mol
288.31 K, Crystal	347.05 J/K/mol
289.54 K, Crystal	348.38 J/K/mol
290 K, Crystal	349.21 J/K/mol
290.77 K, Crystal	349.96 J/K/mol
291.99 K, Crystal	351.2 J/K/mol
293.22 K, Crystal	353.2 J/K/mol
294.45 K, Crystal	354.45 J/K/mol
295.68 K, Crystal	355.94 J/K/mol
296.91 K, Crystal	357.69 J/K/mol
298.15 K, Crystal	359.02 J/K/mol and 359.52 J/K/mol
299.38 K, Crystal	360.35 J/K/mol
300 K, Crystal	361.85 J/K/mol
300.82 K, Crystal	363.01 J/K/mol
302.44 K, Crystal	364.84 J/K/mol
304.06 K, Crystal	367.75 J/K/mol
305.69 K, Crystal	370.08 J/K/mol
307.33 K, Crystal	372.49 J/K/mol
308.97 K, Crystal	374.65 J/K/mol
310 K, Crystal	376.4 J/K/mol
310.62 K, Crystal	377.23 J/K/mol
312.28 K, Crystal	379.97 J/K/mol
313.94 K, Crystal	385.62 J/K/mol
315.6 K, Crystal	386.71 J/K/mol
317.26 K, Crystal	392.78 J/K/mol
318.94 K, Crystal	397.18 J/K/mol
320 K, Crystal	390.45 J/K/mol
320.63 K, Crystal	403.09 J/K/mol
322.32 K, Crystal	412.15 J/K/mol
324.01 K, Crystal	420.79 J/K/mol
325.71 K, Crystal	441.66 J/K/mol
327.44 K, Crystal	477.92 J/K/mol
330 K, Crystal	404.5 J/K/mol
334.8 K, Crystal	411.23 J/K/mol
334.8 K, Liquid	446.57 J/K/mol
340 K, Liquid	449.23 J/K/mol
340.68 K, Liquid	450.39 J/K/mol
344.79 K, Liquid	449.98 J/K/mol
346.59 K, Liquid	452.64 J/K/mol
348.4 K, Liquid	452.39 J/K/mol
350 K, Liquid	454.39 J/K/mol
350.22 K, Liquid	454.88 J/K/mol
352.05 K, Liquid	456.21 J/K/mol
353.89 K, Liquid	457.05 J/K/mol
355.75 K, Liquid	456.96 J/K/mol
357.6 K, Liquid	459.21 J/K/mol
359.66 K, Liquid	460.7 J/K/mol
360 K, Liquid	459.54 J/K/mol
361.55 K, Liquid	460.21 J/K/mol
363.45 K, Liquid	461.62 J/K/mol
365.36 K, Liquid	462.28 J/K/mol
367.28 K, Liquid	462.87 J/K/mol
369.21 K, Liquid	463.95 J/K/mol
370 K, Liquid	464.7 J/K/mol
371.16 K, Liquid	464.86 J/K/mol
